For eight compounds, MIC results are on record in ChEMBL document CHEMBL1154057, “Synthesis and antibacterial activity of novel 15-membered macrolide derivatives: 4''-carbamate, 11,12-cyclic carbonate-4''-carbamate and 11,4''-di-O-arylcarbamoyl analogs of azithromycin” (2009).

Each structure is given as a SMILES string. ≈ marks a conversion by molar mass, not a printed value. Where only a bound is given, the exact number is not on record here.

In assay [1] the test system is Streptococcus pneumoniae. Kind of assay: Antibacterial activity against erythromycin-susceptible Streptococcus pneumoniae ATCC 49619.
In assay [2] the test system is Streptococcus pneumoniae. Kind of assay: Antibacterial activity against erythromycin-resistant Streptococcus pneumoniae B1 encoded by erm gene.
The test system of assay [3] is Streptococcus pneumoniae. Kind of assay: Antibacterial activity against erythromycin-resistant Streptococcus pneumoniae A22072 encoded by mef gene.
The subject of assay [4] is Streptococcus pneumoniae. Kind of assay: Antibacterial activity against erythromycin-resistant Streptococcus pneumoniae AB11 encoded by erm and mef gene.

As to `CC[C@H]1OC(=O)[C@H](C)[C@@H](O[C@H]2C[C@@](C)(OC)[C@@H](OC(=O)NCc3ccc(F)cc3)[C@H](C)O2)[C@H](C)[C@@H](O[C@@H]2O[C@H](C)C[C@H](N(C)C)[C@H]2O)[C@@](C)(O)C[C@@H](C)CN(C)[C@H](C)[C@@H](OC(=O)NCCc2ccccc2)[C@]1(C)O`, the MIC (commonly the least concentration at which growth counts as inhibited) in assay [1] was less than 0.03 µg/mL; in assay [2], 0.25 µg/mL (≈ 0.239 µM); in assay [3], 0.06 µg/mL (≈ 0.0573 µM); in assay [4], 32 µg/mL (≈ 30.6 µM).

For `CC[C@H]1OC(=O)[C@H](C)[C@@H](O[C@H]2C[C@@](C)(OC)[C@@H](OC(=O)NCCc3ccccc3Cl)[C@H](C)O2)[C@H](C)[C@@H](O[C@@H]2O[C@H](C)C[C@H](N(C)C)[C@H]2O)[C@@](C)(O)C[C@@H](C)CN(C)[C@H](C)[C@@H](OC(=O)NCCc2ccc(O)cc2)[C@]1(C)O`, the minimal inhibitory concentration (MIC) is less than 0.03 µg/mL in assay [1], 0.25 µg/mL (≈ 0.229 µM) in assay [2], 0.06 µg/mL (≈ 0.0549 µM) in assay [3] and 16 µg/mL (≈ 14.6 µM) in assay [4].

As for `CCCCCNC(=O)O[C@@H]1[C@@H](C)N(C)C[C@H](C)C[C@](C)(O)[C@H](O[C@@H]2O[C@H](C)C[C@H](N(C)C)[C@H]2O)[C@@H](C)[C@H](O[C@H]2C[C@@](C)(OC)[C@@H](OC(=O)NCCc3ccccc3Cl)[C@H](C)O2)[C@@H](C)C(=O)O[C@H](CC)[C@@]1(C)O`, the MIC in assay [1] was less than 0.03 µg/mL; in assay [2], 0.5 µg/mL (≈ 0.479 µM); in assay [3], 0.5 µg/mL (≈ 0.479 µM); in assay [4] it was 16 µg/mL (≈ 15.3 µM).

Take `CCCCCNC(=O)O[C@@H]1[C@@H](C)N(C)C[C@H](C)C[C@](C)(O)[C@H](O[C@@H]2O[C@H](C)C[C@H](N(C)C)[C@H]2O)[C@@H](C)[C@H](O[C@H]2C[C@@](C)(OC)[C@@H](OC(=O)NCc3ccc(OC)cc3)[C@H](C)O2)[C@@H](C)C(=O)O[C@H](CC)[C@@]1(C)O`: the minimum inhibitory concentration (MIC) is 0.06 µg/mL (≈ 0.0585 µM) in assay [1], 0.5 µg/mL (≈ 0.488 µM) in assay [2], 1 µg/mL (≈ 0.975 µM) in assay [3] and 32 µg/mL (≈ 31.2 µM) in assay [4].

Turning to `CCCCNC(=O)O[C@@H]1[C@@H](C)N(C)C[C@H](C)C[C@](C)(O)[C@H](O[C@@H]2O[C@H](C)C[C@H](N(C)C)[C@H]2O)[C@@H](C)[C@H](O[C@H]2C[C@@](C)(OC)[C@@H](OC(=O)NCc3ccc(OC)cc3)[C@H](C)O2)[C@@H](C)C(=O)O[C@H](CC)[C@@]1(C)O`, the MIC is 0.06 µg/mL (≈ 0.0593 µM) in assay [1], 0.5 µg/mL (≈ 0.494 µM) in assay [2], 1 µg/mL (≈ 0.989 µM) in assay [3] and 128 µg/mL (≈ 127 µM) in assay [4].

`CC[C@H]1OC(=O)[C@H](C)[C@@H](O[C@H]2C[C@@](C)(OC)[C@@H](OC(=O)NCc3ccc(F)cc3)[C@H](C)O2)[C@H](C)[C@@H](O[C@@H]2O[C@H](C)C[C@H](N(C)C)[C@H]2O)[C@@](C)(O)C[C@@H](C)CN(C)[C@H](C)[C@@H](OC(=O)NCCc2ccccc2Cl)[C@]1(C)O`: the MIC was less than 0.03 µg/mL in assay [1], 0.25 µg/mL (≈ 0.231 µM) in assay [2], 0.12 µg/mL (≈ 0.111 µM) in assay [3] and 2 µg/mL (≈ 1.85 µM) in assay [4].

With `CC[C@H]1OC(=O)[C@H](C)[C@@H](O[C@H]2C[C@@](C)(OC)[C@@H](OC(=O)NCCc3ccccc3Cl)[C@H](C)O2)[C@H](C)[C@@H](O[C@@H]2O[C@H](C)C[C@H](N(C)C)[C@H]2O)[C@@](C)(O)C[C@@H](C)CN(C)[C@H](C)[C@@H](OC(=O)NCc2ccccc2)[C@]1(C)O`, the minimum inhibitory concentration (MIC) in assay [1] is less than 0.03 µg/mL; in assay [2], 0.25 µg/mL (≈ 0.235 µM); in assay [3], 0.25 µg/mL (≈ 0.235 µM); in assay [4], 4 µg/mL (≈ 3.76 µM).

With `CC[C@H]1OC(=O)[C@H](C)[C@@H](O[C@H]2C[C@@](C)(OC)[C@@H](OC(=O)NCCc3ccccc3Cl)[C@H](C)O2)[C@H](C)[C@@H](O[C@@H]2O[C@H](C)C[C@H](N(C)C)[C@H]2O)[C@@](C)(O)C[C@@H](C)CN(C)[C@H](C)[C@@H](OC(=O)NCc2ccc(F)cc2)[C@]1(C)O`, the MIC in assay [1] was determined as 0.06 µg/mL (≈ 0.0555 µM); in assay [2] it was 0.25 µg/mL (≈ 0.231 µM); in assay [3], 0.25 µg/mL (≈ 0.231 µM); in assay [4] it was 4 µg/mL (≈ 3.7 µM).
